Test results as given in PubChem BioAssay AID248 (DTP/NCI, 2004).
“And” between values parts separate entries of the source, which are not always exact repeats. Identical values can stand only once. Inconclusive results and toxic doses are left out. Cut-off read from the data, not from the text of the source: active = T/C of 150% or more; inactive = T/C below 125%.

System: L1210 leukemia ip in BDF1 mice, survival T/C
Assay: NCI In Vivo Anticancer Drug Screen. Data for tumor model L1210 Leukemia (intraperitoneal) in B6D2F1 (BDF1) mice
Conditions: endpoint: mean survival time, higher = longer survival
Method in brief: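 Read-out is survival time, reported as the treated-group measurement over the vehicle-control measurement.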

[1] = dose: 25.0 mg/kg/injection, schedule: Q01DX009 (ip), vehicle: saline
[2] = dose: 50.0 mg/kg/injection, schedule: Q01DX009 (ip), vehicle: saline
[3] = dose: 100.0 mg/kg/injection, schedule: Q01DX009 (ip), vehicle: saline
[4] = dose: 200.0 mg/kg/injection, schedule: Q01DX009 (ip), vehicle: saline
[5] = dose: 400.0 mg/kg/injection, schedule: Q01DX009 (ip), vehicle: saline
[6] = dose: 50.0 mg/kg/injection, schedule: Q01DX009 (ip), vehicle: Klucel (hydroxypropylcellulose) (HPC)
[7] = dose: 100.0 mg/kg/injection, schedule: Q01DX009 (ip), vehicle: Klucel (hydroxypropylcellulose) (HPC)
[8] = dose: 100.0 mg/kg/injection, schedule: Q04DX003 (ip), vehicle: Klucel (hydroxypropylcellulose) (HPC)
[9] = dose: 200.0 mg/kg/injection, schedule: Q01DX009 (ip), vehicle: Klucel (hydroxypropylcellulose) (HPC)
[10] = dose: 25.0 mg/kg/injection, schedule: Q01DX009 (ip), vehicle: saline with Tween-80
[11] = dose: 100.0 mg/kg/injection, schedule: Q01DX001 (ip), vehicle: carboxymethylcellulose (CMC)
[12] = dose: 200.0 mg/kg/injection, schedule: Q01DX001 (ip), vehicle: carboxymethylcellulose (CMC)
[13] = dose: 400.0 mg/kg/injection, schedule: Q01DX001 (ip), vehicle: carboxymethylcellulose (CMC)
[14] = dose: 50.0 mg/kg/injection, schedule: Q01DX001 (ip), vehicle: saline
[15] = dose: 50.0 mg/kg/injection, schedule: Q01DX009 (ip), vehicle: saline with Tween-80
[16] = dose: 100.0 mg/kg/injection, schedule: Q01DX001 (ip), vehicle: saline
[17] = dose: 200.0 mg/kg/injection, schedule: Q01DX001 (ip), vehicle: saline
[18] = dose: 100.0 mg/kg/injection, schedule: Q04DX002 (ip), vehicle: Klucel (hydroxypropylcellulose) (HPC)
[19] = dose: 200.0 mg/kg/injection, schedule: Q04DX002 (ip), vehicle: Klucel (hydroxypropylcellulose) (HPC)
[20] = dose: 400.0 mg/kg/injection, schedule: Q04DX002 (ip), vehicle: Klucel (hydroxypropylcellulose) (HPC)

Measured: T/C

CCN(CC)CCOC(=O)c1cccnc1
inactive: [1] 96 % of control | dose: 25.0 mg/kg/injection, schedule: Q04DX003 (ip), vehicle: saline 103 % of control | [2] 94 % of control | dose: 50.0 mg/kg/injection, schedule: Q04DX003 (ip), vehicle: saline 97 % of control | [3] 100 % of control | dose: 100.0 mg/kg/injection, schedule: Q04DX003 (ip), vehicle: saline 97 % of control | [4] 86 % of control | dose: 200.0 mg/kg/injection, schedule: Q04DX003 (ip), vehicle: saline 95 % of control | [5] 107 % of control | dose: 400.0 mg/kg/injection, schedule: Q04DX003 (ip), vehicle: saline 101 % of control

Clc1ccc(C(Cl)(Cl)Cl)cc1Cl
inactive: [6] 110 % of control | [7] 103 % of control | [8] 106 % of control | [9] 98 % of control | dose: 200.0 mg/kg/injection, schedule: Q04DX003 (ip), vehicle: Klucel (hydroxypropylcellulose) (HPC) 106 % of control

CC(C)=CCC(C#N)(CCN(C)C)c1ccc2ccccc2c1 (stereo not drawn)
inactive: [1] 95 % of control | [2] 97 % of control | [3] 95 % of control

CC(C)(O)C(=O)N/N=C/c1ccc(Cl)cc1Cl
inactive: [10] 102 % of control

COc1cccc(/C=N/NC(=O)c2ccncc2)c1OC
inactive: dose: 25.0 mg/kg/injection, schedule: Q01DX009 (ip), vehicle: Klucel (hydroxypropylcellulose) (HPC) 97 % of control | [6] 101 % of control | [7] 92 % of control and 105 % of control

O=C(CCC(=O)Nc1ccccc1)Nc1ccccc1
inactive: [11] 96 % of control | [12] 102 % of control | [13] 102 % of control

COc1cc(N(CCCl)CCCl)ccc1NC(=O)c1ccccc1
inactive: dose: 100.0 mg/kg/injection, schedule: Q01DX001 (ip), vehicle: other 98 % of control | dose: 200.0 mg/kg/injection, schedule: Q01DX001 (ip), vehicle: other 98 % of control | dose: 400.0 mg/kg/injection, schedule: Q01DX001 (ip), vehicle: other 109 % of control

N#CC(C#N)=c1ccc(=C(C#N)C#N)cc1
inactive: [10] 91 % of control | [14] 94 % of control | [15] 89 % of control | [16] 103 % of control | dose: 100.0 mg/kg/injection, schedule: Q01DX009 (ip), vehicle: saline with Tween-80 91 % of control | [17] 103 % of control

O=C(O)c1ccccc1N=Cc1ccccc1
inactive: dose: 100.0 mg/kg/injection, schedule: Q04DX002 (ip), vehicle: saline with Tween-80 93 % of control | dose: 200.0 mg/kg/injection, schedule: Q04DX002 (ip), vehicle: saline with Tween-80 120 % of control | dose: 400.0 mg/kg/injection, schedule: Q04DX002 (ip), vehicle: saline with Tween-80 101 % of control

CCN=C(N)N=C(N)N
inactive: dose: 25.0 mg/kg/injection, schedule: Q01DX001 (ip), vehicle: saline 96 % of control | [14] 106 % of control | [16] 102 % of control

Cc1cc(C)cc(OC(=S)N(C)C)c1
inactive: dose: 100.0 mg/kg/injection, schedule: Q01DX001 (ip), vehicle: Klucel (hydroxypropylcellulose) (HPC) 93 % of control | dose: 200.0 mg/kg/injection, schedule: Q01DX001 (ip), vehicle: Klucel (hydroxypropylcellulose) (HPC) 98 % of control | dose: 400.0 mg/kg/injection, schedule: Q01DX001 (ip), vehicle: Klucel (hydroxypropylcellulose) (HPC) 95 % of control

COC(=O)c1ccccc1C(=O)Nc1cc(C(F)(F)F)ccc1Cl
inactive: [7] 100 % of control | [9] 103 % of control | dose: 400.0 mg/kg/injection, schedule: Q01DX009 (ip), vehicle: Klucel (hydroxypropylcellulose) (HPC) 100 % of control

CCOC(=O)CCOc1ccccc1N(CCCl)CCCl
active: dose: 8.7 mg/kg/injection, schedule: Q01DX Z (ip), vehicle: methylcellulose (MC) 178 % of control | dose: 13.0 mg/kg/injection, schedule: Q01DX Z (ip), vehicle: methylcellulose (MC) 161 % of control | dose: 44.0 mg/kg/injection, schedule: Q01DX Z (ip), vehicle: methylcellulose (MC) 201 % of control | [15] 162 % of control | dose: 66.0 mg/kg/injection, schedule: Q01DX Z (ip), vehicle: methylcellulose (MC) 159 % of control
inactive: dose: 1.2 mg/kg/injection, schedule: Q01DX Z (ip), vehicle: methylcellulose (MC) 110 % of control and 121 % of control | dose: 2.4 mg/kg/injection, schedule: Q01DX Z (ip), vehicle: methylcellulose (MC) 110 % of control and 113 % of control | dose: 3.13 mg/kg/injection, schedule: Q01DX009 (ip), vehicle: other 115 % of control | dose: 4.7 mg/kg/injection, schedule: Q01DX Z (ip), vehicle: methylcellulose (MC) 108 % of control and 111 % of control | dose: 6.2 mg/kg/injection, schedule: Q01DX001 (ip), vehicle: carboxymethylcellulose (CMC) 109 % of control | dose: 9.4 mg/kg/injection, schedule: Q01DX Z (ip), vehicle: methylcellulose (MC) 100 % of control and 120 % of control | dose: 12.5 mg/kg/injection, schedule: Q04DX003 (ip), vehicle: other 106 % of control | dose: 22.0 mg/kg/injection, schedule: Q01DX001 (ip), vehicle: carboxymethylcellulose (CMC) 109 % of control | dose: 25.0 mg/kg/injection, schedule: Q01DX001 (ip), vehicle: carboxymethylcellulose (CMC) 124 % of control | dose: 25.0 mg/kg/injection, schedule: Q01DX009 (ip), vehicle: saline sonified 110 % of control | dose: 25.0 mg/kg/injection, schedule: Q04DX003 (ip), vehicle: other 106 % of control | dose: 33.0 mg/kg/injection, schedule: Q01DX001 (ip), vehicle: carboxymethylcellulose (CMC) 109 % of control | dose: 50.0 mg/kg/injection, schedule: Q01DX009 (ip), vehicle: saline sonified 114 % of control | dose: 75.0 mg/kg/injection, schedule: Q01DX001 (ip), vehicle: carboxymethylcellulose (CMC) 112 % of control | dose: 75.0 mg/kg/injection, schedule: Q01DX Z (ip), vehicle: methylcellulose (MC) 86 % of control | dose: 100.0 mg/kg/injection, schedule: Q01DX Z (ip), vehicle: methylcellulose (MC) 109 % of control | [8] 90 % of control

NC1CCC(CC23CC4CC(CC(C4)C2)C3)CC1 (stereo not drawn)
inactive: dose: 25.0 mg/kg/injection, schedule: Q04DX003 (ip), vehicle: Klucel (hydroxypropylcellulose) (HPC) 110 % of control | dose: 50.0 mg/kg/injection, schedule: Q04DX003 (ip), vehicle: Klucel (hydroxypropylcellulose) (HPC) 102 % of control | [8] 94 % of control and 101 % of control

CNC(=S)N/N=C/c1ccc(N(C)CCC#N)cc1
inactive: [7] 96 % of control | [9] 93 % of control

O=C(c1ccccc1)c1cccc2ccccc12
inactive: dose: 50.0 mg/kg/injection, schedule: Q04DX002 (ip), vehicle: Klucel (hydroxypropylcellulose) (HPC) 109 % of control | [18] 105 % of control | [19] 105 % of control | [20] 109 % of control

COc1cc(Cc2c3cc4c(cc3cc[n+]2C)OCO4)c(Oc2cc(Cc3c4cc5c(cc4cc[n+]3C)OCO5)ccc2OC)cc1OC
inactive: dose: 3.12 mg/kg/injection, schedule: Q04DX003 (ip), vehicle: saline with Tween-80 97 % of control | dose: 6.25 mg/kg/injection, schedule: Q04DX003 (ip), vehicle: saline with Tween-80 95 % of control | dose: 12.5 mg/kg/injection, schedule: Q04DX003 (ip), vehicle: saline with Tween-80 95 % of control

Nc1ccc(C(=O)/C=C/c2ccccn2)cc1
inactive: dose: 50.0 mg/kg/injection, schedule: Q01DX001 (ip), vehicle: carboxymethylcellulose (CMC) 97 % of control | [11] 103 % of control | [12] 105 % of control | [13] 103 % of control

COC1CCS(=O)(=O)C1 (stereo not drawn)
inactive: [16] 95 % of control | [3] 97 % of control | [17] 94 % of control | [4] 98 % of control | dose: 400.0 mg/kg/injection, schedule: Q01DX001 (ip), vehicle: saline 94 % of control | [5] 100 % of control

O=C1OC(=O)C2C1C1CCC2(C2OCCO2)O1 (stereo not drawn)
inactive: [18] 93 % of control | [19] 101 % of control | [20] 101 % of control
